Assay results published in the NIST ThermoML archive (doi:10.1016/j.jct.2015.06.036).
± gives the expanded uncertainty stated by the source.

Assays:
[1] = 101 kPa, Liquid; for viscosity: Falling or rolling sphere viscometry; for speed of sound: Sing-around technique in a fixed-path interferometer; for mass density: Vibrating tube method
[2] = refractive index (Na D-line) (dimensionless); settings: 101 kPa, Liquid, Standard Abbe refractometry
[3] = refractive index (Na D-line) (dimensionless); xn = mol fraction of the nth substance listed; settings: 101 kPa, Liquid, Standard Abbe refractometry, x2 = 0
[4] = xn = mol fraction of the nth substance listed; settings: 101 kPa, Liquid, x2 = 0; for viscosity: Falling or rolling sphere viscometry; for speed of sound: Sing-around technique in a fixed-path interferometer; for mass density: Vibrating tube method

For `CCCCn1cc[n+](C)c1.F[B-](F)(F)F` [1-butyl-3-methylimidazolium tetrafluoroborate], the viscosity ([1]; 278.15 K) was 361 ± 26 mPa·s, the speed of sound ([1]; 278.15 K) was 1615 ± 2 m/s and the mass density ([1]; 278.15 K) was 1215.9 ± 0.4 kg/m3. It also gave a viscosity ([1]; 288.15 K) of 186 ± 11 mPa·s, a speed of sound ([1]; 288.15 K) of 1590 ± 2 m/s and a mass density ([1]; 288.15 K) of 1208.5 ± 0.4 kg/m3. The viscosity ([1]; 298.15 K) was 105 ± 5 mPa·s, the speed of sound ([1]; 298.15 K) was 1565 ± 2 m/s and the mass density ([1]; 298.15 K) was 1201.3 ± 0.4 kg/m3. For the same compound, the viscosity ([1]; 308.15 K) was 64.8 ± 2.7 mPa·s, the speed of sound ([1]; 308.15 K) was 1542 ± 2 m/s and the mass density ([1]; 308.15 K) was 1194.2 ± 0.4 kg/m3. It also gave a viscosity ([1]; 318.15 K) of 42.7 ± 1.8 mPa·s, a speed of sound ([1]; 318.15 K) of 1519 ± 2 m/s and a mass density ([1]; 318.15 K) of 1187.2 ± 0.4 kg/m3. For the same compound, the refractive index ([2]; 288.15 K) was 1.4243 ± 0.0005, the refractive index ([2]; 298.15 K) was 1.4217 ± 0.0005 and the refractive index ([2]; 308.15 K) was 1.419 ± 0.0005. It also gave a refractive index ([2]; 318.15 K) of 1.4164 ± 0.0005.
Work on `CCn1cc[n+](C)c1.F[B-](F)(F)F` [1-ethyl-3-methylimidazolium tetrafluoroborate] yielded a viscosity ([1]; 278.15 K) of 101 ± 5 mPa·s, a speed of sound ([1]; 278.15 K) of 1677 ± 3 m/s and a mass density ([1]; 278.15 K) of 1305.3 ± 1.5 kg/m3. It also gave a viscosity ([1]; 288.15 K) of 62 ± 2.6 mPa·s, a speed of sound ([1]; 288.15 K) of 1653 ± 3 m/s and a mass density ([1]; 288.15 K) of 1297.6 ± 1.5 kg/m3. It also gave a viscosity ([1]; 298.15 K) of 41 ± 1.7 mPa·s, a speed of sound ([1]; 298.15 K) of 1629 ± 3 m/s and a mass density ([1]; 298.15 K) of 1290 ± 1.5 kg/m3. For the same compound, the viscosity ([1]; 308.15 K) was 28.8 ± 1.2 mPa·s, the speed of sound ([1]; 308.15 K) was 1606 ± 3 m/s and the mass density ([1]; 308.15 K) was 1282.4 ± 1.5 kg/m3. It also gave a viscosity ([1]; 318.15 K) of 21.2 ± 0.9 mPa·s, a speed of sound ([1]; 318.15 K) of 1583 ± 3 m/s and a mass density ([1]; 318.15 K) of 1274.9 ± 1.5 kg/m3. The refractive index ([2]; 288.15 K) was 1.4143 ± 0.0006, the refractive index ([2]; 298.15 K) was 1.4118 ± 0.0006 and the refractive index ([2]; 308.15 K) was 1.4092 ± 0.0006. It also gave a refractive index ([2]; 318.15 K) of 1.4067 ± 0.0006.
`CO` [methanol] gave a viscosity ([1]; 278.15 K) of 0.687 ± 0.028 mPa·s, a speed of sound ([1]; 278.15 K) of 1169 ± 2 m/s and a mass density ([1]; 278.15 K) of 805.4 ± 0.2 kg/m3. The viscosity ([1]; 288.15 K) was 0.596 ± 0.024 mPa·s, the speed of sound ([1]; 288.15 K) was 1135 ± 2 m/s and the mass density ([1]; 288.15 K) was 796 ± 0.2 kg/m3. It also gave a viscosity ([1]; 298.15 K) of 0.524 ± 0.021 mPa·s, a speed of sound ([1]; 298.15 K) of 1102 ± 2 m/s and a mass density ([1]; 298.15 K) of 786.6 ± 0.2 kg/m3. It also gave a viscosity ([1]; 308.15 K) of 0.466 ± 0.019 mPa·s, a speed of sound ([1]; 308.15 K) of 1070 ± 2 m/s and a mass density ([1]; 308.15 K) of 777.1 ± 0.2 kg/m3. It also gave a viscosity ([1]; 318.15 K) of 0.42 ± 0.017 mPa·s, a speed of sound ([1]; 318.15 K) of 1037 ± 2 m/s and a mass density ([1]; 318.15 K) of 767.6 ± 0.2 kg/m3. The refractive index ([2]; 288.15 K) was 1.3316 ± 0.0005, the refractive index ([2]; 298.15 K) was 1.3265 ± 0.0005 and the refractive index ([2]; 308.15 K) was 1.3224 ± 0.0005. For the same compound, the refractive index ([2]; 318.15 K) was 1.3182 ± 0.0005.
In the case of `CO` [methanol] + CCCCn1cc[n+](C)c1.F[B-](F)(F)F, the refractive index ([3]; 288.15 K) is reported as 1.3316 ± 0.0005, the refractive index ([3]; 298.15 K) is reported as 1.3265 ± 0.0005 and the refractive index ([3]; 308.15 K) is reported as 1.3224 ± 0.0005. It also gave a refractive index ([3]; 318.15 K) of 1.3182 ± 0.0005, a viscosity ([4]; 278.15 K) of 0.687 ± 0.028 mPa·s and a speed of sound ([4]; 278.15 K) of 1169 ± 2 m/s. The mass density ([4]; 278.15 K) was 805.4 ± 0.2 kg/m3, the viscosity ([4]; 288.15 K) was 0.596 ± 0.024 mPa·s and the speed of sound ([4]; 288.15 K) was 1135 ± 2 m/s. It also gave a mass density ([4]; 288.15 K) of 796 ± 0.2 kg/m3, a viscosity ([4]; 298.15 K) of 0.524 ± 0.021 mPa·s and a speed of sound ([4]; 298.15 K) of 1102 ± 2 m/s. The mass density ([4]; 298.15 K) was 786.6 ± 0.2 kg/m3, the viscosity ([4]; 308.15 K) was 0.466 ± 0.019 mPa·s and the speed of sound ([4]; 308.15 K) was 1070 ± 2 m/s. It also gave a mass density ([4]; 308.15 K) of 777.1 ± 0.2 kg/m3, a viscosity ([4]; 318.15 K) of 0.42 ± 0.017 mPa·s and a speed of sound ([4]; 318.15 K) of 1037 ± 2 m/s. It also gave a mass density ([4]; 318.15 K) of 767.6 ± 0.2 kg/m3.
With `CO` [methanol] + CCn1cc[n+](C)c1.F[B-](F)(F)F the refractive index ([3]; 288.15 K) was 1.3316 ± 0.0005, the refractive index ([3]; 298.15 K) was 1.3265 ± 0.0005 and the refractive index ([3]; 308.15 K) was 1.3224 ± 0.0005. For the same compound, the refractive index ([3]; 318.15 K) was 1.3182 ± 0.0005, the viscosity ([4]; 278.15 K) was 0.687 ± 0.028 mPa·s and the speed of sound ([4]; 278.15 K) was 1169 ± 2 m/s. For the same compound, the mass density ([4]; 278.15 K) was 805.4 ± 0.2 kg/m3, the viscosity ([4]; 288.15 K) was 0.596 ± 0.024 mPa·s and the speed of sound ([4]; 288.15 K) was 1135 ± 2 m/s. It also gave a mass density ([4]; 288.15 K) of 796 ± 0.2 kg/m3, a viscosity ([4]; 298.15 K) of 0.524 ± 0.021 mPa·s and a speed of sound ([4]; 298.15 K) of 1102 ± 2 m/s. The mass density ([4]; 298.15 K) was 786.6 ± 0.2 kg/m3, the viscosity ([4]; 308.15 K) was 0.466 ± 0.019 mPa·s and the speed of sound ([4]; 308.15 K) was 1069 ± 2 m/s. It also gave a mass density ([4]; 308.15 K) of 777.1 ± 0.2 kg/m3, a viscosity ([4]; 318.15 K) of 0.42 ± 0.017 mPa·s and a speed of sound ([4]; 318.15 K) of 1037 ± 2 m/s. It also gave a mass density ([4]; 318.15 K) of 767.6 ± 0.2 kg/m3.
